In US4174402A, “Method for the prophylaxis of SRS-A-induced symptoms” (priority 1978, dated 1979):
Where “and” joins values, the source holds several entries; their conditions need not be identical. Identical values can stand only once. Entries after “also recorded” stand apart in the source; their conditions may differ.

Columns and labels:
bradykinin = experiment: animal or person; conditions: Cavia porcellus, iv, read-out: lowest dose that resulted in significant inhibition
Experimental: Antagonism of bradykinin-induced bronchoconstriction in guinea pigs was determined by measuring increases in resistance to artificial pulmonary inflation (Konzett-Rossler preparation). […] Due to large variations in bronchoconstricting responses among individual guinea pigs, each guinea pig serves as its own control and was challenged with bradykinin twice. The second response to bradykinin was expressed as percent of the first response to bradykinin. […] All guinea pigs having a first bradykinin response of less than 12 mm Hg were rejected as poor responders. […] In order to augment the bronchoconstrictor response, each guinea pig received 100 mcg propranolol/kg, iv, 5 minutes before the first injection of bradykinin (30 mcg/kg, iv). […] Five minutes after the injection of a test compound the guinea pigs received the second injection of bradykinin and the peak of the response determined. The effects of both test compounds were expressed as % inhibition of bradykinin-induced increase in bronchial resistance to forced inflation, as compared to the levels of bronchial resistance following iv administration of their respective solvent controls.

[1] = Oral toxicity, 5 weeks, rhesus monkeys; format: in vivo, rhesus monkey
Experimental: The oral toxicity of compound b at doses of 5.0, 32.0, 75.0 and 200 mg/kg/day for 5 weeks was studied in rhesus monkeys.

acetylcholine = experiment: Test Procedure 7: acetylcholine-induced bronchoconstriction in anesthetized guinea pigs; format: in vivo, guinea pig; conditions: 100 mg/kg p.o.
Experimental: Guinea pigs, weighing 250-350 g were anesthetized with 1.5 g/kg i.p. of urethane and prepared for measurements of resistance to pulmonary inflation using a slightly modified Konzett-Rossler preparation (see Test Procedure 2). Histamine phosphate (5 μg/kg as base) was injected four times at 5 minute intervals in order to ascertain that the maximum bronchoconstrictor responsiveness has been obtained. Acetylcholine was injected intravenously at […] 5 minutes following the last injection of histamine and the increase in intratracheal pressure was recorded. Compound b or aminophylline (100 mg/kg p.o.) or the control vehicle were administered to five guinea pigs each, 1 hour before the injection of acetylcholine (1/2 hour before the anesthesia).

[2] = Oral toxicity, 5 weeks, Charles River CD albino rats; format: in vivo, rat
serotonin = experiment: Test Procedure 6: serotonin-induced bronchoconstriction in anesthetized guinea pigs; format: in vivo, guinea pig
Experimental: Guinea pigs, weighing 275-340 g, were anesthetized and prepared for measurements of resistance to pulmonary inflation using a slightly modified Konzett-Rossler method (see Test Procedure 2). All guinea pigs received 0.1 mg/kg of propranolol iv and 5 minutes later, 50 mcg/kg of serotonin (creatinine complex) iv. Compound b or cyproheptadine were administered iv just before the injection of propranolol at 50 or 5 mg/kg, respectively. Compound b was prepared as a 5% solution in 5% N-methylglucamine and cyproheptadine as a 0.25% aqueous solution.

histamine = experiment: Test Procedure 5: histamine-induced bronchoconstriction in anesthetized guinea pigs; format: in vivo, guinea pig
Experimental: Guinea pigs weighing 350 to 400 g were anesthetized ip with 1.5 g/kg urethane and prepared for measurements of resistance to pulmonary inflation using a slightly modified Konzett-Rossler method (see Test Procedure 2). […] The experimental procedure was started after each guinea pig had attained its maximal, repeatable response to histamine. […] Artificial respiration was resumed 25 minutes later. Thirty minutes after the administration of one of the drugs, tne guinea pigs received two of three injections of histamine at 3-minute intervals. The average of these histamine responses (increases in resistance) was expressed as percent of the maximal histamine response obtained with the same guinea pig before the administration of the drug. In addition to sc administration, compound b was also studied following po administration. In these studies, the time interval between po medication and the secondary histamine challenges was increased to 45 minutes.

SRS-A [3] = experiment: Test Procedure 3: SRS-A-induced increase in resistance to pulmonary inflation in anesthetized cats; format: in vivo, cat
Experimental: The trachea of each cat was cannulated, and the cats were artificially respired at 15 strokes/minute with a stroke volume of 22 ml/kg. A side-arm of the intratracheal cannula was connected to a Statham transducer, and the intratracheal pressure was recorded continuously on a polygraph. One femoral vein was cannulated in all cats receiving intravenous administration of drugs. In addition, most of the cats were cannulated through the femoral artery; this cannula was attached to another Statham transducer, and the blood pressure of these cats recorded. All cats received 1.0 mg/kg of propranolol and 0.2 mg/kg of thenyldiamine intravenously 3 minutes before iv injection of SRS-A. SRS-A was obtained from rat peritoneal cavities as described previously in Test Procedure 1. Each pool of rat ip fluid containing SRS-A was dose-ranged and a dose selected that was estimated to cause an average increase in intrapulmonary resistance to inflation in control cats by 4-6 mmHg. Test dose volumes ranged from 1.0 to 2.0 ml/kg, iv. […] Both test compounds and the sodium hydroxide vehicle were injected iv 5 minutes before the injections of SRS-A (2 minutes before the injection of propranolol and thenyldiamine).

SRS-A [4] = experiment: as above; format: in vivo, cat; remark: listed apart in the source
SRS-A [5] = experiment: Test Procedure 4: competitive antagonism to SRS-A in anesthetized guinea pigs; format: in vivo, guinea pig
Text: The intratracheal pressure (ITP) of anesthetized, artificially respired guinea pigs (Konzett-Rossler preparation) was monitored and peak increases in ITP recorded. The basic methodology was the same as that described hereinabove for Test Procedure 2 except that the basic experimental unit was not two guinea pigs (medicated and control) but three guinea pigs examined in an uninterrupted sequence: a control guinea pig receiving the standard dose of SRS-A, a medicated guinea pig receiving the standard dose of SRS-A and a medicated guinea pig receiving a multiple dose of SRS-A. In this manner, the ratios of peak responses of the same sample of SRS-A could be determined for medicated/control guinea pigs (standard procedure), and for medicated guinea pigs receiving the standard dose of SRS-A. The multiple dose of SRS-A in these studies was either 3× or 6× the standard dose.

[6] = rhesus monkey, in vivo, po, 200 mg/kg/day
[7] = rat, in vivo, po, 640 mg/kg/day

SMILES: COc1ccc2c(c1)c1c(n2C(=O)c2ccccc2)CCC(C(=O)O)C1 (centres unmarked) [Compound b, 9-benzoyl-6-methoxy-1,2,3,4-tetrahydrocarbazole-3-carboxylic acid]
- minimal effective dose (bradykinin): 1 mg/kg
- mortality ([1]; oral 5.0, 32.0 and 75.0 mg/kg/day, 5 weeks): no mortality occurred
- gross or microscopic histopathologic changes ([1]; rhesus monkey, in vivo): No gross or microscopic histophathologic changes were found
- deaths attributed to medication [1, 6]: two deaths attributed to medication occurred
- tolerability [1, 6]: not well tolerated
- % Inhibition (acetylcholine): 9%
- Peak Increase in Intracheal Pressure, mm Hg (acetylcholine): 21 ± 4 mm Hg
- effect against acetylcholine-induced bronchoconstriction (acetylcholine): inactive; also recorded: ineffectiveness
- mortality ([2]; oral 1280 mg/kg/day): all rats died within 18 days
- growth rate [2, 7]: slightly depressed
- hematocrit [2, 7]: minimally lower than controls
- hemoglobin concentration [2, 7]: minimally lower than controls
- number of red blood cells [2, 7]: minimally lower than controls
- tolerability ([2]; rat, in vivo, po, 1280 mg/kg/day): not well tolerated
- effect against serotonin-induced bronchoconstriction (serotonin; guinea pigs): no inhibitory effect; also recorded: ineffectiveness
- Increase in Resistance (mm Hg) (serotonin; iv 50 mg/kg, P insign.): 45 ± 8 mm Hg
- Inhibition % (serotonin; iv 50 mg/kg, P insign.): 4%
- effect against histamine-induced bronchoconstriction (activity profile) (histamine; guinea pigs): ineffectiveness
- inhibition of histamine-induced bronchoconstriction (histamine; oral 100 mg/kg): no significant inhibition
- % Inhibition (histamine; po 100 mg/kg): 16%
- Histamine-Response in % of Premed. Histamine Response (histamine; po 100 mg/kg): 84 ± 26%
- % Inhibition (histamine; sc 100 mg/kg): 8%
- Histamine-Response in % of Premed. Histamine Response (histamine; sc 100 mg/kg): 92 ± 2%
- inhibition of histamine-induced bronchoconstriction (histamine; sc 100 mg/kg): no significant inhibition
- ED50 (SRS-A [3]; Felis catus, 5 min, intravenous): 0.028 ± 0.024 mg/kg
- Max. Increase in Resistance to Pulm. Inflation, mm Hg ± S.E. (SRS-A [3]; intravenous 0.01 mg/kg): 4.1 ± 1.3 mm Hg
- % Inhibition (SRS-A [3]; intravenous 0.1 mg/kg): 73%
- Max. Increase in Resistance to Pulm. Inflation, mm Hg ± S.E. (SRS-A [3]; intravenous 1.0 mg/kg): 0.1 ± 0.1 mm Hg
- inhibition of SRS-A-induced increase in resistance to inflation (SRS-A [3]; intravenous 1.0 mg/kg): complete inhibition
- % Inhibition (SRS-A [4]; intravenous 0.01 mg/kg): 30%
- Max. Increase in Resistance to Pulm. Inflation, mm Hg ± S.E. (SRS-A [4]; intravenous 0.1 mg/kg): 1.6 ± 0.5 mm Hg
- % Inhibition (SRS-A [4]; intravenous 1.0 mg/kg): 98%
- increase in resistance in one of seven cats (SRS-A [4]; intravenous 1.0 mg/kg): 0.5 mm Hg
- % Inhibition (SRS-A [4]; oral 0.33 mg/kg): 25%
- Max. Increase in Resistance to Pulm. Inflation, mm Hg ± S.E. (SRS-A [4]; oral 0.33 mg/kg): 3.1 ± 0.3 mm Hg
- % Inhibition (SRS-A [4]; oral 1.0 mg/kg): 49%
- Max. Increase in Resistance to Pulm. Inflation, mm Hg ± S.E. (SRS-A [4]; oral 1.0 mg/kg): 2.0 ± 0.8 mm Hg
- % Inhibition (SRS-A [4]; oral 3.3 mg/kg): 85%
- Max. Increase in Resistance to Pulm. Inflation, mm Hg ± S.E. (SRS-A [4]; oral 3.3 mg/kg): 0.6 ± 0.5 mm Hg
- % Inhibition (SRS-A [4]; oral 10.0 mg/kg): 98%
- Max. Increase in Resistance to Pulm. Inflation, mm Hg ± S.E. (SRS-A [4]; oral 10.0 mg/kg): 0.1 ± 0.1 mm Hg
- Ratio of peak responses, medicated (high dose SRS-A)/controls (SRS-A [5]; 2.0 mg/kg iv, SRS-A lot B, 6x dose 12 ml/kg): 2.14 ± .68 and 2.14
- Ratio of peak responses, medicated (low dose SRS-A)/controls (SRS-A [5]; 2.0 mg/kg iv, SRS-A lot B, standard dose 2 ml/kg): 0.14 ± 0.7 and 0.14
- % Inhibition (SRS-A [5]; 2.0 mg/kg iv, six-fold SRS-A dose): 0%
- % Inhibition (SRS-A [5]; 2.0 mg/kg iv, standard dose of SRS-A): 86%
- Ratio of peak responses, medicated (high dose SRS-A)/controls (SRS-A [5]; 3.3 mg/kg iv, SRS-A lot A, 3x dose 12 ml/kg): 0.76 ± .20 and 0.76
- Ratio of peak responses, medicated (low dose SRS-A)/controls (SRS-A [5]; 3.3 mg/kg iv, SRS-A lot A, standard dose 4 ml/kg): 0.12 ± 0.3 and 0.12
- % Inhibition (SRS-A [5]; 3.3 mg/kg iv, standard dose of SRS-A): 88%
- % Inhibition (SRS-A [5]; 3.3 mg/kg iv, three-fold SRS-A dose): 24%
- mode of antagonism to SRS-A (SRS-A [5]; iv): competitive antagonist to SRS-A
